From patent EP0683227A1, “Human retinoic acid receptor and genes encoding for it” (INSTITUT NATIONAL DE LA SANTE ET DE LA RECHERCHE MEDICALE …, priority 1989, dated 1991) come the findings set out here.

One assay relates to F9 teratocarcinoma cells. Description: Northern blot of mRAR RNAs in F9 cells after RA treatment (densitometric scanning). Format: cell-based, mouse.
In assay [1] the test system is hRAR-γ (human retinoic acid receptor γ, hRAR-γD cDNA in pSG5 = hRAR-γ0). Description: RA-dependent transcriptional activation of (TRE₃)₃-tk-CAT reporter by hRAR-γ0 in HeLa cells (CAT activity). The format is cell-based. As to conditions: data not shown. The procedure:
To test the ability of hRAR-γ to activate transcription, hRAR-γD cDNA was subcloned into the eukaryotic expression vector pSG5 [Green, S., Issemann, I. & Scheer, E. Nucleic Acids Res. 16, 369 (1988)] as described in Example 6, to give hRAR-γ0 which was co-transfected into HeLa cells along with a reporter plasmid, (TRE₃)₃-tk-CAT, which contains a synthetic RA responsive element as described in Example 6. The transfected cells were exposed (24 hour post transfection) to increasing concentrations of RA, and RA-induced activation of transcription was evaluated 48 hours after transfection by determining the CAT activity expressed from the reporter gene.
The entire 1.5 kb insert from the hRAR-γD clone was inserted into the EcoRI site of the eukaryotic expression vector pSG5 [Green, S., Issemann, I. & Scheer, E. Nucleic Acids Res. 16, 369 (1988)], to yield hRAR-γ0. 500 ng of hRAR-γ0 was transfected into HeLa cells along with 2 µg of the (TRE₃)₃-tk-CAT reporter plasmid, 2 µg of a β-galactosidase expressing plasmid pCH110 (to normalize for variations in transfection efficiency) and 15 µg of carrier DNA (BSM13+) as described [Petkovich, M., Brand, N. J., Krust, A. & Chambon, P. Nature 330, 444-450 (1987)]. 24 hours following transfection, the cells were exposed for an additional 24 hour to RA for retinol with concentrations ranging from 10⁻¹¹M to 10⁻⁶. […]

The subject of assay [2] is mRAR-α (mouse retinoic acid receptor α, expression vector mRAR-αO). Description: RA-dependent transcriptional transactivation of (TRE₃)₃-tk-CAT reporter in co-transfected HeLa cells (CAT activity). Format: cell-based. As to conditions: same concentrations as RA; data not shown. From the text: (§1) (mRAR-αO, mRAR-βO and mRAR-γO, respectively) and co-transfected into HeLa cells with a reporter plasmid, (TRE₃)₃-tk-CAT, containing a RA responsive element. […] In Fig. 3 HeLa cells were co-transfected as described in example 2 [Petkovich, M., Brand, N. J., Krust, A. & Chambon, P. Nature 330, 444-450 (1987); Brand, N., Petkovich, M., Krust, A., Chambon, P., de The, H., Marchio, A., Tiollais, P. & Dejean, A. Nature 332, 850-853 (1988)] with pSG5-based expression vectors [Green, S., Issemann, I. & Scheer, E. Nucleic Acids Res. 16, 369 (1988)] containing the entire cDNA of either mRAR-α (mRAR-αO), β (mRAR-βO) or γ (mRAR-γO), and a reporter plasmid, (TRE₃)₃-tk-CAT, carrying a synthetic RA responsive element (RARE). 24 hours after transfection, cells were fed with media containing increasing concentrations of RA as indicated (from 0 to 1x10⁻⁶ M, lanes 1-8, respectively) and harvested 48 hours post-transfection for determination of CAT activity. […] No obvious difference was observed between the dose responsiveness of mRAR-α and β, in contrast with previous results obtained with human chimeric constructs in which the C region of hRAR-α and β was replaced by the corresponding region of the human oestrogen receptor [Brand, N., Petkovich, M., Krust, A., Chambon, P., de The, H., Marchio, A., Tiollais, P. & Dejean, A. Nature 332, 850-853 (1988)]. The reason for these differences is unknown, but may be related to the use of a different and less sensitive responsive element in the present study. Direct determination of the true affinity of RAR-α, β and γ for RA must await direct binding measurements in vitro in the absence of the cellular retinoic acid binding protein.
(§2) HeLa cells (∼ 10⁶ per dish) were co-transfected with 0.5 µg of a given mRAR expression vector, 2 µg of reporter plasmid and 2 µg of pCH110 (Pharmacia, a β-galactosidase expression vector used as an internal control to normalize for variations in transfection efficiency). The total amount of transfected DNA was adjusted to 20µg by addition of carrier DNA (BSM13+). […]

Assay [3] deals with mRAR-γ (mouse retinoic acid receptor γ, expression vector mRAR-γO). Described as above. The format is cell-based. To be noted: same concentrations as RA; data not shown.
Text: as §1, §2

Assay [4] has as its system mRAR-β (mouse retinoic acid receptor β, expression vector mRAR-βO). Described as above. The format is cell-based. To be noted: same concentrations as RA; data not shown.
Text: as §1, §2

Structures are written as SMILES.

For the molecule `CC1=C(/C=C/C(C)=C/C=C/C(C)=C/C(=O)O)C(C)(C)CCC1` [RA, retinoic acid], the fold induction at 0.33 µM with F9 teratocarcinoma cells (Mus musculus, F9, read-out: induction of mRAR-β RNA) was no less than 30. Also, the “decrease of mRAR-γ RNA” value in the assay with F9 teratocarcinoma cells (RA 3.3x10⁻⁷M, 24 and 48 hours) turned out to be 2 fold.

With `CC1=C(/C=C/C(C)=C/C=C/C(C)=C/CO)C(C)(C)CCC1` [retinol], the “potency as activator compared with all-trans or 13-cis retinoic acid” value in assay [1] is recorded as “much less potent activator”. For the same molecule, the “transactivation efficiency compared with RA” value in assay [2], in assay [3] and in assay [4] was “much less efficient” throughout.
